The subject of assay [1] is EML4-ALK (EA WT). The note with it: […] h, […] °C, no IL-3; ALK-dependent cell growth; stated gain.
Assay [2] deals with T1, NPM-ALK (NA WT).
T1 construct: NPM-ALK fusion from t(2;5)(p23;q35), pcDNA3.0, stably expressed in murine Ba/F3 cells (IL-3-independent); single fused polypeptide NPM1 N-terminal part + ALK C-terminal part with kinase domain; with Nucleophosmin
The assay can be described thus: Ba/F3 proliferation, [3H]-thymidine incorporation. Type of assay: cell-based, Homo sapiens. As to conditions: […] °C, no IL-3, ALK-dependent cell growth, stated gain. In general terms: Uptake of a labelled nucleoside into DNA is a usual measure of proliferation.

Assay [3] concerns T1, NPM-ALK (NA WT). The assay is described as follows: Ba/F3 proliferation, [3H]-thymidine incorporation. In kind it is cell-based, Homo sapiens. The note with it: […] °C, no IL-3, ALK-dependent cell growth, parental Ba/F3 as control.
Assay [4] deals with T2, EML4-ALK (EA WT).
T2 construct: EML4-ALK fusion (EML4 exon 6 to ALK exon 20) in pCDH-CMV-MCS-EF1-Puro, stably expressed in murine Ba/F3 cells (IL-3-independent); single fused polypeptide; with Echinoderm microtubule-associated protein-like 4
The assay is described as follows: Ba/F3 proliferation, [3H]-thymidine incorporation. Type of assay: cell-based, Homo sapiens. As to conditions: […] °C, no IL-3, ALK-dependent cell growth, parental Ba/F3 as control.

For assay [5], the system named is NPM-ALK (NA WT). As to conditions: […] h, […] °C, no IL-3; ALK-dependent cell growth; stated gain. The text has this:
Ba/F3 proliferation, [3H]-thymidine incorporation on NPM-ALK (NA WT)

In assay [6] the test system is T1, NPM-ALK (NA WT). The assay is described as follows: Ba/F3 proliferation, [3H]-thymidine incorporation. In kind it is cell-based, Homo sapiens. The note with it: […] °C, no IL-3, ALK-dependent cell growth, parental Ba/F3 as control. The source holds these as a separate data set.
The subject of assay [7] is T2, EML4-ALK (EA WT). The assay is described as follows: Ba/F3 proliferation, [3H]-thymidine incorporation. As to conditions: […] °C, no IL-3, ALK-dependent cell growth, parental Ba/F3 as control. Type of assay: cell-based, Homo sapiens. The text has this: Ba/F3 proliferation, [3H]-thymidine incorporation on EML4-ALK (EA WT)
The source holds these as a separate data set.

The structures appear in SMILES notation.

In the case of `COc1cc(N2CCC(N3CCN(C)CC3)CC2)ccc1Nc1ncc(Cl)c(Nc2ccccc2P(C)(C)=O)n1` [AP26113], in the assay with EML4-ALK (EA WT) [1], the “IC50 (μmol/L) / AP26113” value stood at 0.021 µmol/L.

In the case of `COc1cc(N2CCC(N3CCN(C)CC3)CC2)ccc1Nc1ncnc(Nc2ccccc2S(=O)(=O)C(C)C)n1` [ASP3026], the “IC50 (μmol/L) / ASP3026” value in the assay on NPM-ALK (NA WT) [2] was determined as 2.763 µmol/L; in the assay on NPM-ALK (NA WT) [3], 0.084 µmol/L; in the assay with EML4-ALK (EA WT) [4], 0.056 µmol/L.

On to `Cc1cc(Nc2ncc(Cl)c(Nc3ccccc3S(=O)(=O)C(C)C)n2)c(OC(C)C)cc1C1CCNCC1` [ceritinib], for which the figures for the “IC50 (μmol/L) / Ceritinib” value in the assay with NPM-ALK (NA WT) [5] and in the assay with EML4-ALK (EA WT) [7] were […] and […], respectively. In addition, in the assay on NPM-ALK (NA WT) [6], the “IC50 (μmol/L) / Alectinib” value worked out at […].
